In test [1] the test system is INS-1 cells expressing IRE1α under Dox control. Nature of the test: Apoptosis in IRE1α-overexpressing INS-1 cells (cleaved caspase 3 immunoblot, Annexin V staining). To be noted: 20 μM, 5 ng/mL Dox. Type of test: cell-based, rat. The protocol: Western Blotting and Antibodies
For protein analysis, cells were lysed into modified RIPA buffer (50 mM Tris, 150 mM NaCl, 10 mM NaF, 1% NP40 (v/v), 0.25% sodium deoxycholate (w/v), 5% glycerol (v/v), pH 7.8) containing protease inhibitor (Pierce Protease Inhibitor Tablets and 1 mM PMSF) and phosphatase inhibitor (Phosphatase inhibitor cocktail 2 and 3, Sigma Aldrich) prior to gel loading. Western blots were performed using Any kD™ Mini-PROTEAN® TGX™ Precast protein gels (BioRad). Gels were ran using Tris-Glycine running buffer (25 mM Tris pH 8.6, 192 mM glycine, 0.1% SDS (w/v)) at 180 V. Gels were transferred to nitrocellulose paper using the TransBlot Turbo System (BioRad) at 25 V, 2.5 A for 15 minutes. Nitrocellulose blots were blocked for 30 minutes at room temperature with Odyssey blocking buffer (Li-Cor). Primary antibodies were diluted into blocking buffer and incubated over night at 4° C. Blots were washed 2× with TBST (20 mM Tris pH 7.5, 150 mM NaCl, 0.1% Tween-20) and incubated with near-infrared-dye-conjugated secondary antibodies (Li-Cor) for 1 hour at room temperature. Blots were imaged using a Li-Cor Odyssey IR Imager and quantitated using ImageStudio. The following primary antibodies were used in this study: rabbit anti-IRE1α mAb #14C10 (Cell Signaling, no. 3294), mouse anti-FLAG (DYKDDDDK (SEQ ID NO:24) mAb (Sigma Aldrich, no. F3165), rabbit anti-spliced XBP1 (Cell Signaling, no. 12782), rabbit anti-caspase 3 (Cell Signaling, no. 9662), rabbit anti-cleaved caspase 3 (Cell Signaling, no. 9661), mouse anti-proinsulin (Santa Cruz Biotechnology, no. sc-9168), and rabbit anti-GAPDH (Santa Cruz Biotechnology, no. sc-25778).
For assaying apoptosis by Annexin V staining, cells were plated in 12-well plates overnight. Cells were then treated with various reagents for indicated time periods. On the day of flow cytometry analysis, cells were trypsinized and washed in PBS and resuspended in Annexin V binding buffer with Annexin-V FITC (BD Pharmingen™). Flow cytometry was performed on a Becton Dickinson LSRII flow cytometer.
(Immunoblotting shows a protein as a band on a membrane.)

Test [2] relates to XBP1 mRNA splicing. Nature of the test: XBP1 splicing in human islets subjected to ER stress. Type of test: cell-based. To be noted: DTT, 20 μM compound. The protocol: (§1) INS-1 or isogenic IRE1α-overexpressing INS-1 cells were plated onto Poly-D-Lysine coated tissue culture plate and grown for 48 hrs. Inhibitors or DMSO were added to the media and incubated for 1 hour at 37° C. with 5% CO2 prior to addition of ER stress agents or Dox as indicated. RNA was isolated from whole cells using either QIAGEN RNeasy Mini kits or Trizol (Invitrogen) and reverse transcribed as above to obtain total cDNA. Then, XBP-1 primers were used to amplify an XBP-1 amplicon spanning the 26 nt intron from the cDNA samples in a regular 3-step PCR. Thermal cycles were: 5 min at 95° C., 30 cycles of 30 s at 95° C., 30 s at 60° C., and 1 min at 72° C., followed by 72° C. for 15 min, and hold at 4° C. Primers used for XBP-1 mRNA splicing were as follows: sense primer XBP1.3 S (5′ […]-3′ (SEQ ID NO:2)) and antisense primer XBP1.2AS (5′-[…]-3′ (SEQ ID NO:3)). PCR fragments were then digested by PstI, resolved on 3% agarose gels, stained with EtBr and quantified by densitometry using ImageJ (NIH). For standard mRNA detection, generally […] total RNA was reverse transcribed using the QuantiTect Reverse Transcription Kit (QIAGEN). […]
Non-diabetic human islets were obtained and cultured in supplemented Prodo Islet Medium (PIM(S) from Prodo Labs). […] Collected media were analyzed by anti-insulin ELISA (EMD Millipore) and insulin levels were normalized to total protein amount.

In test [3] the test system is RIDD (IRE1α-dependent mRNA decay). Nature of the test: RIDD (Blos1 mRNA) in ER-stressed INS-1 cells. To be noted: 2 mM DTT, 20 μM compound. Type of test: cell-based, rat. Here is the method: (§2) RNA Isolation, Quantitative Real-Time PCR, and Primers
as §1, with “(QIAGEN). For qPCR, we used SYBR green (QIAGEN) and StepOnePlus Real-Time PCR System (Applied Biosystems). Thermal cycles were: 5 min at 95° C., 40 cycles of 15 sec at 95° C., 30 sec at 60° C.” for “(QIAGEN).”

Test [4] concerns XBP1 mRNA splicing. Nature of the test: XBP1 mRNA splicing in INS-1 cells conditionally overexpressing IRE1α (Dox). Type of test: cell-based, rat. To be noted: 5 ng/mL Dox; 20 μM for XBP1s immunoblot. The protocol: as §2
INS-1 or isogenic IRE1α-overexpressing INS-1 cells were plated onto Poly-D-Lysine coated tissue culture plate and grown for 48 hrs. Inhibitors or DMSO were added to the media and incubated for 1 hour at 37° C. with 5% CO2 prior to addition of ER stress agents or Dox as indicated. RNA was isolated from whole cells using either QIAGEN RNeasy Mini kits or Trizol (Invitrogen) and reverse transcribed as above to obtain total cDNA. Then, XBP-1 primers were used to amplify an XBP-1 amplicon spanning the 26 nt intron from the cDNA samples in a regular 3-step PCR. Thermal cycles were: 5 min at 95° C., 30 cycles of 30 s at 95° C., 30 s at 60° C., and 1 min at 72° C., followed by 72° C. for 15 min, and hold at 4° C. Primers used for XBP-1 mRNA splicing were as follows: sense primer XBP1.3 S (5′ […]-3′ (SEQ ID NO:2)) and antisense primer XBP1.2AS (5′-[…]-3′ (SEQ ID NO:3)). PCR fragments were then digested by PstI, resolved on 3% agarose gels, stained with EtBr and quantified by densitometry using ImageJ (NIH). For standard mRNA detection, generally […] total RNA was reverse transcribed using the QuantiTect Reverse Transcription Kit (QIAGEN). For qPCR, we used SYBR green (QIAGEN) and StepOnePlus Real-Time PCR System (Applied Biosystems). Thermal cycles were: 5 min at 95° C., 40 cycles of 15 sec at 95° C., 30 sec at 60° C. Gene expression levels were normalized to Beta Actin. Primers used for qPCR of RIDD targets were as follows: Beta Actin Fwd: 5′-[…]-3′ (SEQ ID NO:4), Beta Actin Rev: 5′-[…]-3′ (SEQ ID NO:5), Insulin 1 Fwd: 5′-GTCCTCTGGGAGCCCAAG-3′ (SEQ ID NO:6), Insulin 1 Rev: 5′-ACAGAGCCTCCACCAGG-3′ (SEQ ID NO:7), Insulin 2 Fwd: 5′-ATCCTCTGGGAGCCCCGC-3′ (SEQ ID NO:8), Insulin 2 Rev: 5′-AGAGAGCTTCCACCAAG-3′ (SEQ ID NO:9), Blos1 Fwd: 5′-[…]-3′ (SEQ ID NO:10), and Blos1 Rev: 5′-[…]-3′ (SEQ ID NO:11).
RNA was extracted using Trizol (Invitrogen), DNaseI treated, and cDNA products encompassing the intron amplified by QuantiTect Reverse Transcription Kit (Qiagen). sense Primer rXBP Forward (5′-[…]-3′ (SEQ ID NO:12)) and antisense primer rXBP Reverse (5′-[…]-3′ (SEQ ID NO:13)) were used. PCR fragments were digested by PstI, resolved on 3% agarose gels, stained with EtBr, and quantified by densitometry.
XBP1 splicing for FIGS. 33A-33F: RNA was extracted using Trizol (Invitrogen), cDNA products encompassing the intron amplified by QuantiTect Reverse Transcription Kit (Qiagen). Sense Primer rXBP splicing Forward (5′-[…]-3′ (SEQ ID NO:12)) and antisense primer rXBP splicing Reverse (5′-[…]-3′ (SEQ ID NO:13)) were used. PCR fragments were digested by PstI, resolved on 3% agarose gels, stained with EtBr, and quantified by densitometry.

Experimental findings from patent publication US11884649B2, “IRE1α inhibitors and uses thereof” (The Regents of the University of California, priority 2020, dated 2024) are described below.

`O=S(=O)(CC(F)(F)F)Nc1ccc(Oc2ncccc2-c2ccnc(N[C@H]3CCCNC3)n2)c2ccccc12` (stereo in doubt) [PAIR1, 2,2,2-trifluoro-N-(4-(3-(2-(piperidin-3-ylamino)pyrimidin-4-yl)pyridin-2-yloxy)naphthalen-1-yl)ethanesulfonamide]: in test [1], the “Annexin-V positivity (mitochondrial apoptosis assay)” value is recorded as “significant cytoprotective efficacy” and the “generation of cleaved caspase 3” value is given as “markedly reduced”. In test [2], the “XBP1 mRNA splicing” value is “only weakly inhibited”. Moreover, in test [3], the “RIDD (Blos1 mRNA)” value is “equivalently blunt RIDD”. Besides, in test [4], the “XBP1 mRNA splicing and expression of Xbp1s” value was “largely preserved”.
Consider `O=S(=O)(CCC(F)(F)F)Nc1ccc(Oc2ncccc2-c2ccnc(NC3CCCNC3)n2)c2ccccc12` (stereo not drawn) [KIRA9, 3,3,3-trifluoro-N-(4-(3-(2-(piperidin-3-ylamino)pyrimidin-4-yl)pyridin-2-yloxy)naphthalen-1-yl)propane-1-sulfonamide], for which, in test [1], the “Annexin-V positivity (mitochondrial apoptosis assay)” value is “significant cytoprotective efficacy” and the “generation of cleaved caspase 3” value is reported as “markedly reduced”. Also, the “RIDD (Blos1 mRNA)” value in test [3] is “equivalently blunt RIDD”. Also, the “XBP1 mRNA splicing and expression of Xbp1s” value in test [4] is “more vigorously inhibited these outputs”.
